Experimental data reported in patent publication US12440525B2 (priority 2017, dated 2025).
Where a name gives a salt, the structure may show the parent alone. Read-outs that look alike come from different tables or passages of the source.

Experiments:
[1] = test system: VSVΔ51; format: cell-based, Vesicular stomatitis virus
[2] = test system: VSVΔ51; format: cell-based, Vesicular stomatitis virus; remark: listed apart in the source
[3] = test system: STAT1; format: cell-based, human
[4] = test system: VSVΔ51; format: cell-based, Vesicular stomatitis virus; remark: listed apart in the source
[5] = test system: IFITM1; format: cell-based, human
[6] = test system: wild-type VSV (wtVSV); format: cell-based, Vesicular stomatitis virus
[7] = test system: 786-0 cells; format: cell-based, human
[8] = test system: VSV-viral proteins; format: cell-based, Vesicular stomatitis virus
[9] = test system: B16F10 cells; format: cell-based, murine
[10] = test system: STAT1; format: cell-based, human; remark: listed apart in the source
[11] = test system: VSVΔ51; format: cell-based, Vesicular stomatitis virus; remark: listed apart in the source
[12] = test system: VSVΔ51; format: cell-based, Vesicular stomatitis virus; remark: listed apart in the source
[13] = test system: HSV-1 mutant N212; format: cell-based, herpes simplex virus
[14] = test system: NF-κB subunit p65; format: cell-based, human
[15] = test system: VSVΔ51; format: cell-based, Vesicular stomatitis virus; remark: listed apart in the source
[16] = test system: VSVΔ51; format: cell-based, Vesicular stomatitis virus; remark: listed apart in the source
[17] = test system: VSVΔ51; format: cell-based, Vesicular stomatitis virus; remark: listed apart in the source
[18] = test system: Sindbis virus; format: cell-based
[19] = test system: B16F10 tumors; conditions: mouse, in vivo
[20] = test system: wtVSV; format: cell-based, Vesicular stomatitis virus
[21] = test system: STAT2; format: cell-based, human
[22] = test system: E1A-deleted Ad5; format: cell-based, adenovirus serotype 5
[23] = test system: CT26WT tumors; conditions: mouse, in vivo
[24] = test system: VSVΔ51; format: cell-based, Vesicular stomatitis virus; remark: listed apart in the source
[25] = test system: HT29 tumors; conditions: mouse, in vivo
[26] = test system: CT26WT cells; format: cell-based, murine
[27] = test system: VSVΔ51; format: cell-based, Vesicular stomatitis virus; remark: listed apart in the source
[28] = test system: replication incompetent lentivirus; format: cell-based

CCOC(=O)/C=C/C(=O)OCC [DEF, diethyl fumarate]
VSVΔ51 infection, spread, and oncolysis [1]: robustly enhanced
VSVΔ51 infection, spread, and oncolysis [2]: robustly enhanced

CCOC(=O)/C=C\C(=O)OCC [DEM, diethyl maleate]
STAT1 phosphorylation in cells conditioned with IFNβ [3]: inhibited STAT1 phosphorylation
VSVΔ51 infection, spread, and oncolysis [1]: robustly enhanced
VSVΔ51 infection, spread, and oncolysis [2]: robustly enhanced

COC(=O)/C=C/C(=O)OC [DMF, dimethyl fumarate]
antiviral effects of Type I IFN pretreatment on VSVΔ51 infection [4]: antagonized the antiviral effects
expression levels of the antiviral protein IFITM1 [5]: potently repressed
infection of 786-0 cells by wild-type VSV [6]: no impact on infection
cell viability, combined treatment with VSVΔ51 [7]: synergistic decrease in cell viability
VSV-viral proteins [8]: increased
STAT1 phosphorylation in cells conditioned with IFNβ [3]: inhibited STAT1 phosphorylation
cell viability, combined treatment with VSVΔ51 [9]: synergistic decrease in cell viability
activation (phosphorylation) of STAT1 [10]: decreased activation (phosphorylation)
average plaque diameter of VSVΔ51 [11]: substantially increased
virus growth in human normal tissues [12]: did not improve virus growth
viral output of oncolytic herpes virus [13]: improved viral output
phosphorylation and translocation of NF-κB subunit p65 upon TNFα stimulation [14]: inhibits phosphorylation and translocation
phosphorylation and translocation of NF-κB subunit p65 upon infection [14]: inhibits phosphorylation and translocation
Virus-encoded GFP expression [2]: greatly enhanced
increase of VSVΔ51 virus growth [2]: more than 100 fold
infection of VSVΔ51 [2]: enhanced infection
pre-treatment time prior to infection at which the enhancing effect was observed [2]: up to 24 hours
time post-infection of treatment at which the enhancing effect was observed [2]: up to 8 hours
viral output of VSVΔ51, growth curve at low MOI [2]: enhanced the viral output
virus growth in normal tissue cores [15]: did not increase virus growth
VSVΔ51 infection in patient-derived cancer cell lines [16]: increased VSVΔ51 infection
increase of VSVΔ51 infection ex vivo in primary human tumor samples [17]: > 10 fold
viral output of Sindbis virus [18]: improved viral output
mice with complete remission, combination therapy [19]: approximately 20%
survival, combination therapy compared with either monotherapy [19]: significantly prolonged survival
tumor progression, combination therapy DMF + VSVΔ51 [19]: considerable delay in tumor progression
protective (suppressive) effect of VSVΔ51ΔG-infected cell supernatant on subsequent infection [20]: completely overcome this suppressive effect
activation (phosphorylation) of STAT2 [21]: decreased activation (phosphorylation)
increase of luciferase transgene expression [22]: up to 20 fold
challenge of cured mice with a foreign tumor [23]: grew 4T1 tumors at a similar rate as the naive mice
mice with complete remission, combination therapy [23]: approximately 20%
re-challenge of cured mice with the same cancer cells [23]: immune to re-challenge
survival, combination therapy compared with either monotherapy [23]: significantly prolonged survival
tumor progression, combination therapy DMF + VSVΔ51 [23]: considerable delay in tumor progression
virus-associated luciferase gene expression in tumors [23]: enhanced virus-associated luciferase gene expression
protective (suppressive) effect of VSVΔ51ΔG-infected cell supernatant on subsequent infection [24]: completely overcome this suppressive effect
survival, combination therapy compared with either monotherapy [25]: significantly prolonged survival
tumor progression, combination therapy DMF + VSVΔ51 [25]: considerable delay in tumor progression
virus-associated luciferase gene expression in tumors [25]: enhanced virus-associated luciferase gene expression
cell viability, combined treatment with VSVΔ51 [26]: synergistic decrease in cell viability
VSVΔ51 infection in panel of cancer cell lines [27]: robustly enhanced infection

COC(=O)/C=C\C(=O)OC [DMM, dimethyl maleate]
VSVΔ51 infection, spread, and oncolysis [1]: robustly enhanced
VSVΔ51 infection, spread, and oncolysis [2]: robustly enhanced

COC(=O)CCC(=O)OC [DMS, dimethyl succinate]
viral output of VSVΔ51 [2]: no impact on viral output

O=C(O)/C=C/C(=O)O [FA, fumaric acid]
infection of VSVΔ51 / viral growth [2]: no impact on viral growth

COC(=O)/C=C/C(=O)O [MMF, monomethyl fumarate]
increase in lentivirus yield [28]: 2.4 fold
